Test system: Bovine cardiac myofibrils
Assay: In vitro model of dose-dependent myofibril ATPase modulation (AC1.4, pyruvate kinase/lactate dehydrogenase-coupled ATPase assay at pCa25)
Format: biochemical
Conditions: concentration at which ATPase activity was 1.4-fold higher than the bottom of the dose curve, mean of a minimum of two independent tests
Experimental: In vitro Model of Dose-Dependent Myofibril ATPase Modulation: Dose responses were measured using a calcium-buffered, pyruvate kinase and lactate dehydrogenase-coupled ATPase assay containing the following reagents (concentrations expressed are final assay concentrations): Potassium PIPES (12 mM), MgCl2 (2 mM), ATP (1 mM), DTT (1 mM), BSA (0.1 mg/mi), NADH (0.5 mM), PEP (1.5 mM), pyruvate kinase (4 U/ml), lactate dehydrogenase (8 U/ml), and antifoam (90 ppm). The pH was adjusted to 6.80 at 22° C. by addition of potassium hydroxide.
Bovine cardiac myofibrils were obtained by homogenizing the appropriate tissue in the presence of detergent. Such treatment removes membranes and majority of soluble cytoplasmic proteins but leaves intact cardiac sarcomeric acto-myosin apparatus. Concentrations of myofibrils were adjusted to achieve the necessary rate of ATP hydrolysis (typically 0.25-1.0 mg/ml).
Assays were performed by first preparing a dilution series of test chemical entity, each with an assay mixture containing potassium Pipes, MgCl2, BSA, DTT, pyruvate kinase, lactate dehydrogenase, myofibrils, antifoam, EGTA, CaCl2, and water. The assay was started by adding an equal volume of solution containing potassium Pipes, MgCl2, BSA, DTT, ATP, NADH, PEP, antifoam, and water. ATP hydrolysis was monitored by absorbance at 340 nm. The resulting dose response curve was fit by the 4 parameter equation y=Bottom+((Top−Bottom)/(1+((EC50/X)^Hill))). […] AC1.4 values reported in the table below are mean values based on a minimum of two independent tests.

Row | Structure (SMILES) | AC1.4
1 | O=C(N[C@@H](c1ccc(C(F)(F)F)cc1F)C1CC1)[C@H]1CCCN1C(=O)c1cccc(Cl)c1 [Example 378, 1-(3-chlorobenzoyl)-N-((R)-cyclopropyl(2-fluoro-4-(trifluoromethyl)phenyl)methyl)-D-prolinamide] | 1.227 µM
2 | CN1CC(C(NC(=O)[C@H]2C[C@H]3C[C@H]3N2C(=O)c2cccc(S(C)(=O)=O)c2)c2ccc(C(F)(F)F)cc2F)CC1=O (stereo partly drawn) [Example 575, (1R,3R,5R)-N-((2-fluoro-4-(trifluoromethyl)phenyl)(1-methyl-5-oxopyrrolidin-3-yl)methyl)-2-(3-(methylsulfonyl)benzoyl)-2-azabicyclo[3.1.0]hexane-3-carboxamrde] | 3.245 µM
3 | C[C@@H](NC(=O)[C@H]1CCCN1C(=O)[C@@H]1CN(S(=O)(=O)N2CC(C#N)C2)CCN1)c1ccc(C(F)(F)F)cc1F [Example 144, 1-(((2S)-4-((3-cyano-1-azetidinyl)sulfonyl)-2-piperazinyl)carbonyl)-N-((1R)-1-(2-fluoro-4-(trifluoromethyl)phenyl)ethyl)-D-prolinamide] | 0.2462 µM
4 | C[C@@H](NC(=O)[C@H]1CCCN1C(=O)c1cccc(S(=O)(=O)N2CC(C#N)C2)c1)c1ccc(C(F)F)cc1 [Example 120, 1-((3-((3-cyano-1-azetidinyl)sulfonyl)phenyl)carbonyl)-N-((1R)-1-(4-(difluoromethyl)phenyl)ethyl)-D-prolinamide] | 0.1826 µM
5 | CCNc1ccccc1C(=O)N1CCC[C@@H]1C(=O)N[C@@H](c1ccc(C(F)(F)F)cc1F)C1CC1 [Example 521, N-((R)-cyclopropyl(2-fluoro-4-(trifluoromethyl)phenyl)methyl)-1-(2-(ethylamino)benzoyl)-D-prolinamide] | 2.551 µM
6 | CS(=O)(=O)c1cncc(C(=O)N2CCC[C@@H]2C(=O)NC(c2ccc(C(F)(F)F)cc2F)C2CC2)c1 (stereo partly drawn) [Example 809, (2R)-N-(cyclopropyl(2-fluoro-4-(trifluoromethyl)phenyl)methyl)-1-(5-(methylsulfonyl)nicotinoyl)pyrrolidine-2-carboxamide] | 4.951 µM
7 | CS(=O)(=O)c1ccc(C(=O)N2CCC[C@@H]2C(=O)N[C@@H](c2ccc(C(F)(F)F)cc2F)C2CC2)cn1 [Example 505, N-((R)-cyclopropyl(2-fluoro-4-(trifluoromethyl)phenyl)methyl)-1-((6-(methylsulfonyl)-3-pyridinyl)carbonyl)-D-prolinamidev] | 2.1945 µM
8 | O=C(NCc1ccc(C(F)(F)F)cc1)[C@H]1CCCN1C(=O)[C@H]1CCCN(S(=O)(=O)N2CC[C@H](C(F)(F)F)C2)C1 [Example 384, N-(4-(trifluoromethyl)benzyl)-1-(((3S)-1-(((3S)-3-(trifluoromethyl)-1-pyrrolidinyl)sulfonyl)-3-piperidinyl)carbonyl)-D-prolinamide] | 1.295 µM
9 | O=C(N[C@@H](c1ccc(C(F)(F)F)cc1F)C1CC1)[C@H]1C[C@H]2C[C@H]2N1C(=O)c1cccc(S(=O)(=O)CCO)c1 [Example 249, (1R,3R,5R)-N-((R)-cyclopropyl(2-fluoro-4-(trifluoromethyl)phenyl)methyl)-2-(3-((2-hydroxyethyl)sulfonyl)benzoyl)-2-azabicyclo[3.1.0]hexane-3-carboxamide] | 0.5932 µM
10 | O=C(N[C@@H](c1ccc(C(F)(F)F)cc1F)C1COC1)[C@H]1C[C@H]2C[C@H]2N1C(=O)c1cc(C2CC2)ccn1 [Example 718, (1R,3R,5R)-2-((4-cyclopropyl-2-pyridinyl)carbonyl)-N-((R)-(2-fluoro-4-(trifluoromethyl)phenyl)(3-oxetanyl)methyl)-2-azabicyclo[3.1.0]hexane-3-carboxamide] | 6.2625 µM
11 | N#C[C@@H]1CCN(S(=O)(=O)N2CCC[C@H](C(=O)N3CCC[C@@H]3C(=O)NCc3ccc(C(F)(F)F)cc3)C2)C1 [Example 319, 1-(((3S)-1-(((3R)-3-cyano-1-pyrrolidinyl)sulfonyl)-3-piperidinyl)carbonyl)-N-(4-(trifluoromethyl)benzyl)-D-prolinamide] | 0.8692 µM
12 | CC(C)(C)c1cccc(C(=O)N2[C@@H](C(=O)N[C@@H](c3ccc(C(F)(F)F)cc3F)C3COC3)C[C@H]3C[C@H]32)c1 [Example 213, (1R,3R,5R)-N-((R)-(2-fluoro-4-(trifluoromethyl)phenyl)(3-oxetanyl)methyl)-2-(3-(2-methyl-2-propanyl)benzoyl)-2-azabicyclo[3.1.0]hexane-3-carboxamide] | 0.4603 µM
13 | N#CC1CN(S(=O)(=O)N2CCC[C@H](C(=O)N3CCC[C@@H]3C(=O)NCc3c(F)cccc3C(F)(F)F)C2)C1 [Example 659, 1-(((3S)-1-((3-cyano-1-azetidinyl)sulfonyl)-3-piperidinyl)carbonyl)-N-(2-fluoro-6-(trifluoromethyl)benzyl)-D-prolinamide] | 4.605 µM
14 | CS(=O)(=O)c1cc(C(=O)N2CCC[C@@H]2C(=O)N[C@@H](c2ccc(C(F)(F)F)cc2F)C2CC2)ccc1N [Example 805, 1-(4-amino-3-(methylsulfonyl)benzoyl)-N-((R)-cyclopropyl(2-fluoro-4-(trifluoromethyl)phenyl)methyl)-D-prolinamide] | 9.817 µM
15 | O=C(NCc1ccc(C(F)(F)F)cc1)[C@H]1CCCN1C(=O)[C@H]1CCCN(S(=O)(=O)N2CC3(CCO3)C2)C1 [Example 654, (R)-1-((S)-1-(1-oxa-6-azaspiro[3.3]heptan-6-ylsulfonyl)piperidine-3-carbonyl)-N-(4-(trifluoromethyl)benzyl)pyrrolidine-2-carboxamide] | 4.538 µM
16 | CN(C)S(=O)(=O)c1cccc(C(=O)N2CCC[C@@H]2C(=O)NCc2ccc(Cl)c(F)c2)c1 [Example 303, N-(4-chloro-3-fluorobenzyl)-1-(3-(dimethylsulfamoyl)benzoyl)-D-prolinamide] | 0.7956 µM
17 | N#CC1CN(S(=O)(=O)c2cccc(C(=O)N3CCCCCC3C(=O)NCc3ccc(C(F)(F)F)cc3)c2)C1 (centres unmarked) [Example 96, (2)-1-((3-((3-cyano-1-azetidinyl)sulfonyl)phenyl)carbonyl)-N-(4-(trifluoromethyl)benzyl)-2-azepanecarboxamide] | 0.1452 µM
18 | CS(=O)(=O)c1cccc(C(=O)N2C[C@@H]3C[C@@H]3[C@@H]2C(=O)N[C@@H](c2ccc(C(F)(F)F)cc2F)C2CC2)c1 [Example 484, (1S,2R,5R)-N-((R)-cyclopropyl(2-fluoro-4-(trifluoromethyl)phenyl)methyl)-3-(3-(methylsulfonyl)benzoyl)-3-azabicyclo[3.1.0]hexane-2-carboxamide] | 2.014 µM
19 | CS(=O)(=O)c1cccc(C(=O)N2CC[C@@H]3C[C@]32C(=O)N[C@@H](c2ccc(C(F)(F)F)cc2F)C2CC2)c1 [Example 751, (1R,5R)-N-((R)-cyclopropyl(2-fluoro-4-(trifluoromethyl)phenyl)methyl)-2-(3-(methylsulfonyl)benzoyl)-2-azabicyclo[3.1.0]hexane-1-carboxamide] | 7.3925 µM
20 | CS(=O)(=O)c1cccc(C(=O)N2C[C@@H](F)C[C@@H]2C(=O)N[C@@H](c2ccc(Cl)c(F)c2)C2COC2)c1 [Example 365, (4S)-N-((R)-(4-chloro-3-fluorophenyl)(3-oxetanyl)methyl)-4-fluoro-1-(3-(methylsulfonyl)benzoyl)-D-prolinamide] | 1.139 µM

Source: patent publication US11780826B2 (Amgen Inc., priority 2017, dated 2023)
